Each structure is given as a SMILES string.

The text below walks through data of US20230119239A1, “OROMUCOSAL FILM COMPOSITIONS” (ReForm Therapeutics Ltd., priority 2021, published 2023).

A short description of the data set: Ex vivo permeation of liraglutide solution through porcine sublingual mucosa, Franz diffusion cell. The settings on record: liraglutide 3 mg/mL + Transcutol® HP (10% solution) compared with liraglutide solution alone; 120 minutes; receptor phosphate buffer pH 8.5; FIG. 4. In kind it is in vitro ADME. The procedure:
The solution of liraglutide, and solution of liraglutide and permeation enhancer was tested. […] Samples were taken at 0 and 120 minutes to determinate the presence of liraglutide in the receptor chamber. The concentration level of liraglutide was determined using HPLC/MS method.

As to `CCCCCCCCCCCCCCCC(=O)N[C@@H](CCC(=O)NCCCC[C@H](NC(=O)[C@H](C)NC(=O)[C@H](C)NC(=O)[C@H](CCC(N)=O)NC(=O)CNC(=O)[C@H](CCC(=O)O)NC(=O)[C@H](CC(C)C)NC(=O)[C@H](Cc1ccc(O)cc1)NC(=O)[C@H](CO)NC(=O)[C@H](CO)NC(=O)[C@@H](NC(=O)[C@H](CC(=O)O)NC(=O)[C@H](CO)NC(=O)[C@@H](NC(=O)[C@H](Cc1ccccc1)NC(=O)[C@@H](NC(=O)CNC(=O)[C@H](CCC(=O)O)NC(=O)[C@H](C)NC(=O)[C@@H](N)Cc1cnc[nH]1)[C@@H](C)O)[C@@H](C)O)C(C)C)C(=O)N[C@@H](CCC(=O)O)C(=O)N[C@@H](Cc1ccccc1)C(=O)N[C@H](C(=O)N[C@@H](C)C(=O)N[C@@H](Cc1c[nH]c2ccccc12)C(=O)N[C@@H](CC(C)C)C(=O)N[C@H](C(=O)N[C@@H](CCCNC(=N)N)C(=O)NCC(=O)N[C@@H](CCCNC(=N)N)C(=O)NCC(=O)O)C(C)C)[C@@H](C)CC)C(=O)O` [liraglutide], the “permeation of liraglutide through sublingual mucosa ex vivo (in words)” value is on record as “significantly increased permeation”.
